The text below walks through data of patent publication US11724992B2 (Novartis AG, priority 2017, dated 2023).

For this test, the system named is IL-1β production in PMA-differentiated THP-1 cells. In words: IL-1β production in PMA-differentiated THP-1 cells stimulated with gramicidin (hTHP-1 assay, 2% fetal bovine serum; Procedures 1-3). The conditions noted are these: hTHP-1 assay containing 2% fetal bovine serum; class symbols; read-out: hTHP-1 IC50 (Average IC50 of compounds in hTHP-1 assay). In kind it is cell-based, human. As to the method:
The following protocol is suitable for testing the activity of the compounds disclosed herein.
Procedure 1: IL-1β Production in PMA-Differentiated THP-1 Cells Stimulated with Gramicidin
THP-1 cells were purchased from the American Type Culture Collection and sub-cultured according to instructions from the supplier. Cells were cultured in complete RPMI 1640 (containing 10% heat inactivated FBS, penicillin (100 units/ml) and streptomycin (100 μg/ml)), and maintained in log phase prior to experimental setup. Prior to the experiment, compounds were dissolved in dimethyl sulfoxide (DMSO) to generate a 30 mM stock. The compound stock was first pre-diluted in DMSO to 3, 0.34, 0.042 and 0.0083 mM intermediate concentrations and subsequently spotted using Echo550 liquid handler into an empty 384-well assay plate to achieve desired final concentration (e.g. 100, 33, 11, 3.7, 1.2, 0.41, 0.14, 0.046, 0.015, 0.0051, 0.0017 μM). DMSO was backfilled in the plate to achieve a final DMSO assay concentration of 0.37%. The plate was then sealed and stored at room temperature until required.
THP-1 cells were treated with PMA (Phorbol 12-myristate 13-acetate) (20 ng/ml) for 16-18 hours. On the day of the experiment the media was removed and adherent cells were detached with trypsin for 5 minutes. Cells were then harvested, washed with complete RPMI 1640, spun down, and resuspended in RPMI 1640 (containing 2% heat inactivated FBS, penicillin (100 units/ml) and streptomycin (100 μg/ml). The cells were plated in the 384-well assay plate containing the spotted compounds at a density of 50,000 cells/well (final assay volume 50 μl). Cells were incubated with compounds for 1 hour and then stimulated with gramicidin (5 μM) (Enzo) for 2 hours. Plates were then centrifuged at 340 g for 5 min. Cell free supernatant (40 μL) was collected using a 96-channel PlateMaster (Gilson) and the production of IL-1β was evaluated by HTRF (cisbio). The plates were incubated for 18 h at 4° C. and read using the preset HTRF program (donor emission at 620 nm, acceptor emission at 668 nm) of the SpectraMax i3x spectrophotometer (Molecular Devices, software SoftMax 6). A vehicle only control and a dose titration of CRID3 (100-0.0017 μM) were run concurrently with each experiment.
Procedure 2: IL-1β Production in PMA-Differentiated THP-1 Cells Stimulated with Gramicidin
THP-1 cells were purchased from the American Type Culture Collection and sub-cultured according to instructions from the supplier. Prior to experiments, cells were cultured in complete RPMI 1640 (containing 10% heat inactivated FBS, penicillin (100 units/ml) and streptomycin (100 μg/ml)), and maintained in log phase prior to experimental setup. Prior to the experiment THP-1 were treated with PMA (Phorbol 12-myristate 13-acetate) (20 ng/ml) for 16-18 hours. Compounds were dissolved in dimethyl sulfoxide (DMSO) to generate a 30 mM stock. On the day of the experiment the media was removed and adherent cells were detached with trypsin for 5 minutes. Cells were then harvested, washed with complete RPMI 1640, spun down, resuspended in RPMI 1640 (containing 2% heat inactivated FBS, penicillin (100 units/ml) and streptomycin (100 μg/ml). The cells were plated in a 384-well plate at a density of 50,000 cells/well (final assay volume 50 μl). Compounds were first dissolved in assay medium to obtain a 5× top concentration of 500 μM. 10 step dilutions (1:3) were then undertaken in assay medium containing 1.67% DMSO. 5× compound solutions were added to the culture medium to achieve desired final concentration (e.g. 100, 33, 11, 3.7, 1.2, 0.41, 0.14, 0.046, 0.015, 0.0051, […]). Final DMSO concentration was at 0.37%. Cells were incubated with compounds for 1 hour and then stimulated with gramicidin (5 μM) (Enzo) for 2 hours. Plates were then centrifuged at 340 g for 5 min. Cell free supernatant (40 μL) was collected using a 96-channel PlateMaster (Gilson) and the production of IL-1β was evaluated by HTRF (cisbio). […]
As for `Cc1oc(S(N)(=O)=NC(=O)Nc2c(C(C)C)cc(F)cc2C(C)C)cc1C(C)(C)O` (single isomer, unassigned) [Example 79], the IC50 (usually the point on the concentration scale where inhibition reaches its midpoint) lay in the range of 0.008 to 0.04 µM. For the compound `Cc1oc(S(N)(=O)=NC(=O)Nc2c(C(C)C)cc(F)cc2C(C)C)cc1C(C)(C)O` (single isomer, unassigned) [Example 80], the IC50 was in the range of 0.2 to 1 µM. Take `Cc1oc(S(N)(=O)=NC(=O)Nc2c(C(C)C)cc(C#N)c(F)c2C(C)C)cc1C(C)(C)O` (single isomer, unassigned) [Example 81]: the IC50 lay within 0.008 to 0.04 µM. Under `Cc1oc(S(N)(=O)=NC(=O)Nc2c(C(C)C)cc(C#N)c(F)c2C(C)C)cc1C(C)(C)O` (single isomer, unassigned) [Example 82] stands 0.2 to 1 µM; under `Cc1sc(S(N)(=O)=NC(=O)Nc2c3c(cc4c2CCC4)CCC3)cc1C(C)(C)O` (single isomer, unassigned) [Example 85], 0.008 to 0.04 µM. Under `Cc1sc(S(N)(=O)=NC(=O)Nc2c3c(cc4c2CCC4)CCC3)cc1C(C)(C)O` (single isomer, unassigned) [Example 86] stands 0.2 to 1 µM. Under `CC(C)(O)c1ccc(S(N)(=O)=NC(=O)Nc2c3c(cc4c2CCC4)CCC3)c(F)c1` (single isomer, unassigned) [Example 87] stands 0.04 to 0.2 µM; under `CC(C)(O)c1ccc(S(N)(=O)=NC(=O)Nc2c3c(cc4c2CCC4)CCC3)c(F)c1` (single isomer, unassigned) [Example 88], 1 to 5 µM. As to `CC(C)(O)c1csc(S(N)(=O)=NC(=O)Nc2c3c(c(Cl)c4c2CCC4)CCC3)c1` (single isomer, unassigned) [Example 89], the IC50 was in the range of 0.008 to 0.04 µM. Under `CC(C)(O)c1csc(S(N)(=O)=NC(=O)Nc2c3c(c(Cl)c4c2CCC4)CCC3)c1` (single isomer, unassigned) [Example 90] stands 0.2 to 1 µM.

Regarding `CC(C)c1cc(C#N)c(F)c(C(C)C)c1NC(=O)N=S(N)(=O)c1cnc(C(C)(C)O)s1` (single isomer, unassigned) [Example 91], the IC50 was in the range of 0.04 to 0.2 µM. Under `CC(C)c1cc(C#N)c(F)c(C(C)C)c1NC(=O)N=S(N)(=O)c1cnc(C(C)(C)O)s1` (single isomer, unassigned) [Example 92] stands 1 to 5 µM.

Regarding `CC(C)n1ccc(S(N)(=O)=NC(=O)Nc2c3c(cc4c2CCC4)CCC3)n1` (single isomer, unassigned) [Example 94], the IC50 was 1 to 5 µM. Under `CC(C)c1cc(OC(F)F)cc(C(C)C)c1NC(=O)N=S(N)(=O)c1sc(C(C)(C)O)cc1F` (single isomer, unassigned) [Example 95] stands under 0.008 µM; under `CC(C)c1cc(OC(F)F)cc(C(C)C)c1NC(=O)N=S(N)(=O)c1sc(C(C)(C)O)cc1F` (single isomer, unassigned) [Example 96], 0.2 to 1 µM; under `CCc1cc(OC(F)F)cc(C(C)C)c1NC(=O)N=S(N)(=O)c1cnc(C(C)(C)O)s1` (single isomer, unassigned) [Example 97], 0.04 to 0.2 µM. Consider `CCc1cc(OC(F)F)cc(C(C)C)c1NC(=O)N=S(N)(=O)c1cnc(C(C)(C)O)s1` (single isomer, unassigned) [Example 98], for which the 50% inhibitory concentration (IC50) was 5 to 30 µM. Under `Cc1cc(C(C)(C)O)ccc1S(N)(=O)=NC(=O)Nc1c2c(cc3c1CCC3)CCC2` (single isomer, unassigned) [Example 99] stands 0.2 to 1 µM. For `Cc1cc(C(C)(C)O)ccc1S(N)(=O)=NC(=O)Nc1c2c(cc3c1CCC3)CCC2` (single isomer, unassigned) [Example 100], the IC50 lay within 5 to 30 µM.

For `CC(C)c1cc(OC(F)F)cc(C2CC2)c1NC(=O)N=S(N)(=O)c1cnc(C(C)(C)O)s1` (single isomer, unassigned) [Example 101], the IC50 lay in the range of 0.04 to 0.2 µM. Regarding `CC(C)c1cc(OC(F)F)cc(C2CC2)c1NC(=O)N=S(N)(=O)c1cnc(C(C)(C)O)s1` (single isomer, unassigned) [Example 102], the IC50 was in the range of 1 to 5 µM.

For `CC(C)c1cc(F)cc(C(C)C)c1NC(=O)N=S(N)(=O)c1cnc(C(C)(C)O)s1` (single isomer, unassigned) [Example 103], the IC50 lay in the range of 0.04 to 0.2 µM. Under `CC(C)c1cc(F)cc(C(C)C)c1NC(=O)N=S(N)(=O)c1cnc(C(C)(C)O)s1` (single isomer, unassigned) [Example 104] stands 1 to 5 µM; under `CC(C)c1cc(F)cc(C(C)C)c1NC(=O)N=S(N)(=O)c1cccc(C(C)(C)O)c1` (single isomer, unassigned) [Example 105], 0.2 to 1 µM; under `CC(C)c1cc(F)cc(C(C)C)c1NC(=O)N=S(N)(=O)c1cccc(C(C)(C)O)c1` (single isomer, unassigned) [Example 106], 5 to 30 µM. Under `CC(C)c1c(F)c(C#N)cc(C2CC2)c1NC(=O)N=S(N)(=O)c1cnc(C(C)(C)O)s1` (single isomer, unassigned) [Example 107] stands 5 to 30 µM.

Take `CC(C)c1c(F)c(C#N)cc(C2CC2)c1NC(=O)N=S(N)(=O)c1cnc(C(C)(C)O)s1` (single isomer, unassigned) [Example 108]: the IC50 was 0.04 to 0.2 µM. As to `CC(C)c1cc(OC(F)F)cc(C(C)C)c1NC(=O)N=S(N)(=O)c1cnc(C(C)(C)O)s1` (single isomer, unassigned) [Example 111], the IC50 was in the range of 0.04 to 0.2 µM.

With `CC(C)c1cc(OC(F)F)cc(C(C)C)c1NC(=O)N=S(N)(=O)c1cnc(C(C)(C)O)s1` (single isomer, unassigned) [Example 112], the IC50 is 5 to 30 µM. Under `CC(C)(O)c1csc(S(N)(=O)=NC(=O)Nc2c3c(c(C#N)c4c2CCC4)CCC3)c1` (single isomer, unassigned) [Example 113] stands 0.008 to 0.04 µM; under `CC(C)(O)c1csc(S(N)(=O)=NC(=O)Nc2c3c(c(C#N)c4c2CCC4)CCC3)c1` (single isomer, unassigned) [Example 114], 1 to 5 µM; under `CC(C)(O)c1ncc(S(N)(=O)=NC(=O)Nc2c3c(c(OC(F)F)c4c2CCC4)CCC3)s1` (single isomer, unassigned) [Example 115], 1 to 5 µM. Under `CC(C)(O)c1ncc(S(N)(=O)=NC(=O)Nc2c3c(c(OC(F)F)c4c2CCC4)CCC3)s1` (single isomer, unassigned) [Example 116] stands 0.04 to 0.2 µM; under `CN(C)Cc1ccc(S(N)(=O)=NC(=O)Nc2c3c(cc4c2CCC4)CCC3)cc1` (single isomer, unassigned) [Example 117], 0.04 to 0.2 µM.

With `CN(C)Cc1ccc(S(N)(=O)=NC(=O)Nc2c3c(cc4c2CCC4)CCC3)cc1` (single isomer, unassigned) [Example 118], the IC50 was in the range of 1 to 5 µM.

On to `CC(C)(O)c1cc(F)c(S(N)(=O)=NC(=O)Nc2c3c(c(F)c4c2CCC4)CCC3)s1` (single isomer, unassigned) [Example 121], for which the IC50 was in the range of 0.008 to 0.04 µM. Regarding `CC(C)(O)c1cc(F)c(S(N)(=O)=NC(=O)Nc2c3c(c(F)c4c2CCC4)CCC3)s1` (single isomer, unassigned) [Example 122], the IC50 is 0.2 to 1 µM.

On to `Cc1oc(S(N)(=O)=NC(=O)Nc2c3c(cc4c2CCC4C)CCC3)cc1C(C)(C)O` (single isomer, unassigned) [Example 123], for which the half-inhibitory concentration (IC50) lay within 0.04 to 0.2 µM. Under `Cc1oc(S(N)(=O)=NC(=O)Nc2c3c(cc4c2CCC4C)CCC3)cc1C(C)(C)O` (single isomer, unassigned) [Example 124] stands 1 to 5 µM.
